Data published in patent publication US8263596B2, “Kinase inhibitors and method of treating cancer” (University Health Network, priority 2010, dated 2012).
Where two headings read alike, the source gives them in different places.

Legend:
human PLK4 = molecular target: T1, human PLK4 (Homo sapiens, UniProt O00444); assay: PLK4 inhibition assay (indirect ELISA); type: biochemical
T1 construct: amino terminal GST fusion of residues 1-391 of human PLK4; made in house; host or cells: E. coli
T1 sequence (O00444 1-391): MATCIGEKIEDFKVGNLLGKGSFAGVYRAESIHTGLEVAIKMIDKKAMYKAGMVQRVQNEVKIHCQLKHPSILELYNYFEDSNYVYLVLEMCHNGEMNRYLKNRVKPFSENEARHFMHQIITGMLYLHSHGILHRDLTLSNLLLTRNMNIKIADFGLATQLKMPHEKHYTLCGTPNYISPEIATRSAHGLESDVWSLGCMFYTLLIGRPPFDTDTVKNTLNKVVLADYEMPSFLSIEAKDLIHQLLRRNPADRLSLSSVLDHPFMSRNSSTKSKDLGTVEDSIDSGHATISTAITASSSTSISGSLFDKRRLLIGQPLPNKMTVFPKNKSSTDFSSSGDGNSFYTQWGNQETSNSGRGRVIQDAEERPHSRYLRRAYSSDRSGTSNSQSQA
Description: PLK4 activity was measured using an indirect ELISA detection system. […] The colourimetric reaction was allowed to continue for 5 minutes, followed by addition of stop solution (0.5 N sulphuric acid), and quantified by detection at 450 nm with either a monochromatic or filter based plate reader (Molecular Devices M5 or Beckman DTX880, respectively).
Compounds were pre-incubated in the presence of enzyme for 15 minutes prior to addition of ATP and the activity remaining quantified using the above described activity assay. […] The IC50 value was determined using a non-linear 4 point logistic curve fit (XLfit4, IDBS) with the formula; (A+(B/(1+((x/C)^D)))), where A=background value, B=range, C=inflection point, D=curve fit parameter.

Aurora B = Aurora B (Homo sapiens, UniProt Q96GD4); assay: Aurora B inhibition assay (Z-Lyte); type: biochemical; settings: read-out: IC50 Ranges Aurora B
Aurora B, sequence (Q96GD4 whole entry): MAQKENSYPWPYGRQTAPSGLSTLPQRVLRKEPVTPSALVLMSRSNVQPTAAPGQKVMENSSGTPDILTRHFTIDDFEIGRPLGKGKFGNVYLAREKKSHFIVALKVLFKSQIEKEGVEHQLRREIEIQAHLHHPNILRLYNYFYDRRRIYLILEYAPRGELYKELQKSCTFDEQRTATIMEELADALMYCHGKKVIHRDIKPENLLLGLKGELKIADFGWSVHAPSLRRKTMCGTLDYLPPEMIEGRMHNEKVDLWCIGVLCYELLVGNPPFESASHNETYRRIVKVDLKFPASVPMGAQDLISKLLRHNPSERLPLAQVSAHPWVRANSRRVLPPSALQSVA
Description: Aurora B inhibition was determined using the Z-Lyte assay kit from Invitrogen. […] The % inhibition values were determined according to the manufacturer's directions and IC50 values were obtained using a non-linear 4 point logistic curve fit (XLfit4, IDBS)

| Compound | IC50 (human PLK4; read-out: IC50 Ranges PLK4) [nM] | IC50 (Aurora B) [nM] | IC50 (human PLK4) [nM] |
| --- | --- | --- | --- |
| O=C1Nc2ncc(Br)cc2[C@]12C[C@H]2c1ccc2cn[nH]c2c1 (racemic) [Example A12, (1R*,2S*)-5′-bromo-2-(1H-indazol-6-yl)spiro[cyclopropane-1,3′-pyrrolo[2,3-b]pyridin]-2′(1′H)-one] | 100 to 1000 |  |  |
| COc1ccc2c(c1)[C@]1(C[C@@H]1c1ccc3c(-c4ccc(N5CCN(C)CC5)nc4)n[nH]c3c1)C(=O)N2 (relative stereo) [Example A17, (1R*,2R*)-5′-Methoxy-2-(3-(6-(4-methylpiperazin-1-yl)pyridin-3-yl)-1H-indazol-6-yl)spiro[cyclopropane-1,3′-indolin]-2′-one] |  | 100 to 1000 | < 100 |
| CN1CCN(c2ccc(-c3n[nH]c4cc([C@@H]5C[C@@]56C(=O)Nc5ccc(Br)cc56)ccc34)cn2)CC1 (relative stereo) [Example A19, (1R*,2S*)-5′-bromo-2-(3-(6-(4-methylpiperazin-1-yl)pyridin-3-yl)-1H-indazol-6-yl)spiro[cyclopropane-1,3′-indolin]-2′-one] | < 100 | < 100 |  |
| O=C1Nc2ccc(F)cc2[C@]12C[C@H]2c1ccc2c(I)n[nH]c2c1 (relative stereo) [Example A40, (1R*,2S*)-5′-fluoro-2-(3-iodo-1H-indazol-6-yl)spiro[cyclopropane-1,3′-indolin]-2′-one] | 100 to 1000 | 100 to 1000 |  |
| COc1ccc2c(c1)[C@]1(C[C@H]1c1ccc3c(-c4ccc(N5CCN(C)CC5)cc4)n[nH]c3c1)C(=O)N2C (relative stereo) [Example A100, (1R*,2S*)-5′-methoxy-1′-methyl-2-(3-(4-(4-methylpiperazin-1-yl)phenyl)-1H-indazol-6-yl)spiro[cyclopropane-1,3′-indolin]-2′-one 2,2,2-trifluoroacetate] | < 100 | < 100 |  |
| COc1ccc2c(c1)[C@]1(C[C@H]1c1ccc3c(-c4ccc(N5CCC(O)CC5)cc4)n[nH]c3c1)C(=O)N2 (relative stereo) [Example A118, (1R*,2S*)-2-(3-(4-(4-hydroxypiperidin-1-yl)phenyl)-1H-indazol-6-yl)-5′-methoxyspiro[cyclopropane-1,3′-indolin]-2′-one 2,2,2-trifluoroacetate] | < 100 |  |  |
| COc1ccc2c(c1)[C@]1(C[C@H]1c1ccc3c(-c4ccc(N5CCC(N(C)C)CC5)cc4)n[nH]c3c1)C(=O)N2 (relative stereo) [Example A119, (1R*,2S*)-2-(3-(4-(4-(dimethylamino)piperidin-1-yl)phenyl)-1H-indazol-6-yl)-5′-methoxy spiro[cyclopropane-1,3′-indolin]-2′-one 2,2,2-trifluoroacetate] | < 100 | < 100 |  |
| COc1ccc2c(c1)[C@]1(C[C@H]1c1ccc3c(C#Cc4ccc(C=O)cc4)n[nH]c3c1)C(=O)N2 (relative stereo) [Example A137, 4-((6-((1R*,2S*)-5′-methoxy-2′-oxospiro[cyclopropane-1,3′-indoline]-2-yl)-1H-indazol-3-yl)ethynyl)benzaldehyde] | < 100 | < 100 |  |
| COc1ccc2c(c1)[C@]1(C[C@H]1c1ccc3c(C#Cc4ccc(CN5CCOCC5)cc4)n[nH]c3c1)C(=O)N2 (relative stereo) [Example A138, (1R*,2S*)-5′-methoxy-2-(3-((4-(morpholinomethyl)phenyl)ethynyl)-1H-indazol-6-yl)spiro[cyclopropane-1,3′-indolin]-2′-one 2,2,2-trifluoroacetate] | < 100 | < 100 |  |
| COc1ccc2c(c1)[C@]1(C[C@H]1c1ccc3c(-c4ccc(CN5CCOCC5)cc4)n[nH]c3c1)C(=O)N2 (relative stereo) [Example A139, (1R*,2S*)-5′-methoxy-2-(3-(4-(morpholinomethyl)phenyl)-1H-indazol-6-yl)spiro[cyclopropane-1,3′-indolin]-2′-one 2,2,2-trifluoroacetate] | < 100 | < 100 |  |
| COc1ccc2c(c1)[C@]1(C[C@H]1c1ccc3c(-c4ccc(CN5CCN(C)CC5)cc4)n[nH]c3c1)C(=O)N2 (relative stereo) [Example A140, (1R*,2S*)-5′-methoxy-2-(3-(4-((4-methylpiperazin-1-yl)methyl)phenyl)-1H-indazol-6-yl)spiro[cyclopropane-1,3′-indolin]-2′-one bis-2,2,2-trifluoro acetate] | < 100 | < 100 |  |
| COc1ccc2c(c1)[C@]1(C[C@H]1c1ccc3c(C#Cc4ccc(CN5CCN(C)CC5)cc4)n[nH]c3c1)C(=O)N2 (relative stereo) [Example A145, (1R*,2S*)-5′-methoxy-2-(3-((4-((4-methylpiperazin-1-yl)methyl)phenyl)ethynyl)-1H-indazol-6-yl)spiro[cyclopropane-1,3′-indolin]-2′-one bis(2,2,2-trifluoroacetate)] | < 100 | 100 to 1000 |  |
| O=C1Nc2ccccc2[C@]12C[C@H]2c1ccc2c(-c3cccc(CN4CCOCC4)c3)n[nH]c2c1 (relative stereo) [Example A153, (1R*,2S*)-2-(3-(3-(morpholinomethyl)phenyl)-1H-indazol-6-yl)spiro [cyclopropane-1,3′-indolin]-2′-one 2,2,2-trifluoroacetate] | 100 to 1000 |  |  |
| CN1CCN(Cc2ccc(-c3n[nH]c4cc([C@@H]5C[C@@]56C(=O)Nc5ccccc56)ccc34)cc2)CC1 (relative stereo) [Example A155, (1R*,2S*)-2-(3-(4-((4-methylpiperazin-1-yl)methyl)phenyl)-1H-indazol-6-yl)spiro[cyclopropane-1,3′-indolin]-2′-one bis-2,2,2-trifluoroacetate] | < 100 | 100 to 1000 |  |
| CN1CCN(C(=O)c2ccc(-c3n[nH]c4cc([C@@H]5C[C@@]56C(=O)Nc5ccccc56)ccc34)cc2)CC1 (relative stereo) [Example A156, (1R*,2S*)-2-(3-(4-(4-methylpiperazine-1-carbonyl)phenyl)-1H-indazol-6-yl)spiro[cyclopropane-1,3′-indolin]-2′-one 2,2,2-trifluoroacetate] | < 100 | 100 to 1000 |  |
| CN(C)Cc1cccc(/C=C/c2n[nH]c3cc([C@@H]4C[C@@]45C(=O)Nc4ccccc45)ccc23)c1 (relative stereo) [Example A162, (1R*,2S*)-(E)-2-(3-(3-((dimethylamino)methyl)styryl)-1H-indazol-6-yl) spiro[cyclopropane-1,3′-indolin]-2′-one 2,2,2-trifluoroacetate] | < 100 | < 100 |  |
| NC(=O)CN1C(=O)[C@@]2(C[C@H]2c2ccc3c(/C=C/c4ccc(CN5CCCCC5)cc4)n[nH]c3c2)c2ccccc21 (relative stereo) [Example A165, 2-((1R*,2S*)-(E)-2′-oxo-2-(3-(4-(piperidin-1-ylmethyl)styryl)-1H-indazol-6-yl)spiro[cyclopropane-1,3′-indoline]-1′-yl)acetamide 2,2,2-trifluoroacetate] | < 100 | < 100 |  |
| CN1CCN(c2ccc(-c3n[nH]c4cc([C@@H]5C[C@@]56C(=O)Nc5ccc(F)cc56)ccc34)cn2)CC1 (relative stereo) [Example A210, (1R*,2S*)-5′-fluoro-2-(3-(6-(4-methylpiperazine-1-yl)pyridine-3-yl)-1H-indazol-6-yl)-spiro[cyclopropane-1,3′-indolin]-2′-one] |  | < 100 |  |
